{"source": "patent US20210284952A1", "about": "“METHODS OF APPLYING ACETATE TOXICITY AND INDUCING ACETATE UPTAKE IN MICROALGAE CULTURES” (HELIAE DEVELOPMENT LLC, priority 2016, published 2021)", "key": {"[1]": {"system": "Chlorella sp. HS26", "details": "2.4 g/L", "experimental": "This experiment was conducted to determine the effect of different culture medium pH levels on the growth of Chlorella sp. HS26 at a constant culture medium acetate concentration. Duplicate 100 ml flasks of axenic cultures of Chlorella were adjusted to initial pH levels of 2.5, 3.5, 4.5, 5.5, 6.5, 7.0, 7.5, 8.5, 9.5, and 10.5. The culture pH was adjusted using either hydrochloric acid (HCl) or sodium hydroxide (NaOH). […] Samples of the flask culture were taken initially and every other day over a six day period (144 hours)."}, "[2]": {"system": "Aurantiochytrium sp. HS399", "experimental": "Cultures of Aurantiochytrium sp. […] 100 mL volume cultures were prepared in 250 mL flasks, and cultured at a pH of 7.0, temperature of 27° C., a shaking frequency of 180 rpm, in the dark for 5 days (120 hours). The cultures were inoculated at the same cell density."}, "[3]": {"system": "Aurantiochytrium sp. HS399", "details": "for Cell Dry Weight of Aurantiochytrium: 2 g/L Na Acetate", "experimental": "This experiment was conducted to determine the effect of different culture pH levels on the growth of Aurantiochytrium sp. HS399. Duplicate 100 ml flasks of axenic cultures of Aurantiochytrium were adjusted to initial pH levels of 4, 5, 6, 7, and 8. The culture pH was adjusted using either hydrochloric acid (HCl) or potassium hydroxide (KOH). […] Samples of the flask culture were taken initially and every other day over a five-day period (120 hours)."}}, "note": "Where two headings read alike, the source gives them in different places.", "data": [{"smiles": "CC(=O)[O-].[Na+]", "note": "[Sodium Acetate, sodium acetate]", "values": [{"measurement": "Cell Dry Weight of Chlorella", "setting": "[1]; initial pH 8.5, 0 h", "result": 0.6, "unit": "g/L"}, {"measurement": "Cell Dry Weight of Chlorella", "setting": "[1]; initial pH 8.5, 24 h", "result": 0.8, "unit": "g/L"}, {"measurement": "Cell Dry Weight of Chlorella", "setting": "[1]; initial pH 8.5, 48 h", "result": 2.4, "unit": "g/L"}, {"measurement": "Cell Dry Weight of Chlorella", "setting": "[1]; initial pH 8.5, 96 h", "result": 4.2, "unit": "g/L"}, {"measurement": "Cell Dry Weight of Chlorella", "setting": "[1]; initial pH 8.5, 144 h", "result": 6.0, "unit": "g/L"}, {"measurement": "Cell Dry Weight of Chlorella", "setting": "[1]; initial pH 9.5, 0 h", "result": 0.6, "unit": "g/L"}, {"measurement": "Cell Dry Weight of Chlorella", "setting": "[1]; initial pH 9.5, 24 h", "result": 0.8, "unit": "g/L"}, {"measurement": "Cell Dry Weight of Chlorella", "setting": "[1]; initial pH 9.5, 48 h", "result": 1.2, "unit": "g/L"}, {"measurement": "Cell Dry Weight of Chlorella", "setting": "[1]; initial pH 9.5, 96 h", "result": 4.3, "unit": "g/L"}, {"measurement": "Cell Dry Weight of Chlorella", "setting": "[1]; initial pH 9.5, 144 h", "result": 6.1, "unit": "g/L"}, {"measurement": "Cell Dry Weight of Chlorella", "setting": "[1]; initial pH 10.5, 0 h", "result": 0.6, "unit": "g/L"}, {"measurement": "Cell Dry Weight of Chlorella", "setting": "[1]; initial pH 10.5, 24 h", "result": 0.9, "unit": "g/L"}, {"measurement": "Cell Dry Weight of Chlorella", "setting": "[1]; initial pH 10.5, 48 h", "result": 1.4, "unit": "g/L"}, {"measurement": "Cell Dry Weight of Chlorella", "setting": "[1]; initial pH 10.5, 96 h", "result": 4.3, "unit": "g/L"}, {"measurement": "Cell Dry Weight of Chlorella", "setting": "[1]; initial pH 10.5, 144 h", "result": 6.1, "unit": "g/L"}, {"measurement": "growth", "setting": "[2]; concentrations of sodium acetate below 100 g/L", "result": "grew well"}, {"measurement": "Cell Dry Weight of Aurantiochytrium", "setting": "[2]; sodium acetate 5 g/L, 0 h", "result": 2.7, "unit": "g/L"}, {"measurement": "Cell Dry Weight of Aurantiochytrium", "setting": "[2]; sodium acetate 5 g/L, 24 h", "result": 8.01, "unit": "g/L"}, {"measurement": "Cell Dry Weight of Aurantiochytrium", "setting": "[2]; sodium acetate 5 g/L, 40 h", "result": 8.13, "unit": "g/L"}, {"measurement": "Cell Dry Weight of Aurantiochytrium", "setting": "[2]; sodium acetate 5 g/L, 72 h", "result": 7.49, "unit": "g/L"}, {"measurement": "Cell Dry Weight of Aurantiochytrium", "setting": "[2]; sodium acetate 5 g/L, 96 h", "result": 7.38, "unit": "g/L"}, {"measurement": "Cell Dry Weight of Aurantiochytrium", "setting": "[2]; sodium acetate 5 g/L, 120 h", "result": 7.6, "unit": "g/L"}, {"measurement": "Cell Dry Weight of Aurantiochytrium", "setting": "[2]; sodium acetate 10 g/L, 0 h", "result": 2.7, "unit": "g/L"}, {"measurement": "Cell Dry Weight of Aurantiochytrium", "setting": "[2]; sodium acetate 10 g/L, 24 h", "result": 8.29, "unit": "g/L"}, {"measurement": "Cell Dry Weight of Aurantiochytrium", "setting": "[2]; sodium acetate 10 g/L, 40 h", "result": 9.69, "unit": "g/L"}, {"measurement": "Cell Dry Weight of Aurantiochytrium", "setting": "[2]; sodium acetate 10 g/L, 72 h", "result": 10.35, "unit": "g/L"}, {"measurement": "Cell Dry Weight of Aurantiochytrium", "setting": "[2]; sodium acetate 10 g/L, 96 h", "result": 10, "unit": "g/L"}, {"measurement": "Cell Dry Weight of Aurantiochytrium", "setting": "[2]; sodium acetate 10 g/L, 120 h", "result": 10.9, "unit": "g/L"}, {"measurement": "Cell Dry Weight of Aurantiochytrium", "setting": "[2]; sodium acetate 20 g/L, 0 h", "result": 2.7, "unit": "g/L"}, {"measurement": "Cell Dry Weight of Aurantiochytrium", "setting": "[2]; sodium acetate 20 g/L, 24 h", "result": 7.35, "unit": "g/L"}, {"measurement": "Cell Dry Weight of Aurantiochytrium", "setting": "[2]; sodium acetate 20 g/L, 40 h", "result": 10.45, "unit": "g/L"}, {"measurement": "Cell Dry Weight of Aurantiochytrium", "setting": "[2]; sodium acetate 20 g/L, 72 h", "result": 13.7, "unit": "g/L"}, {"measurement": "Cell Dry Weight of Aurantiochytrium", "setting": "[2]; sodium acetate 20 g/L, 96 h", "result": 13.11, "unit": "g/L"}, {"measurement": "Cell Dry Weight of Aurantiochytrium", "setting": "[2]; sodium acetate 20 g/L, 120 h", "result": 13.55, "unit": "g/L"}, {"measurement": "Cell Dry Weight of Aurantiochytrium", "setting": "[2]; sodium acetate 40 g/L, 0 h", "result": 2.7, "unit": "g/L"}, {"measurement": "Cell Dry Weight of Aurantiochytrium", "setting": "[2]; sodium acetate 40 g/L, 24 h", "result": 7.06, "unit": "g/L"}, {"measurement": "Cell Dry Weight of Aurantiochytrium", "setting": "[2]; sodium acetate 40 g/L, 40 h", "result": 11.84, "unit": "g/L"}, {"measurement": "Cell Dry Weight of Aurantiochytrium", "setting": "[2]; sodium acetate 40 g/L, 72 h", "result": 15.78, "unit": "g/L"}, {"measurement": "Cell Dry Weight of Aurantiochytrium", "setting": "[2]; sodium acetate 40 g/L, 96 h", "result": 18.9, "unit": "g/L"}, {"measurement": "Cell Dry Weight of Aurantiochytrium", "setting": "[2]; sodium acetate 40 g/L, 120 h", "result": 19.65, "unit": "g/L"}, {"measurement": "Cell Dry Weight of Aurantiochytrium", "setting": "[2]; sodium acetate 100 g/L, 0 h", "result": 2.7, "unit": "g/L"}, {"measurement": "Cell Dry Weight of Aurantiochytrium", "setting": "[2]; sodium acetate 100 g/L, 24 h", "result": 1.7, "unit": "g/L"}, {"measurement": "Cell Dry Weight of Aurantiochytrium", "setting": "[2]; sodium acetate 100 g/L, 40 h", "result": 0.7, "unit": "g/L"}, {"measurement": "acetate concentration tolerance", "setting": "[2]; sodium acetate in the culture, pH 7.0", "result": "around 100 g/L"}, {"measurement": "Cell Dry Weight of Aurantiochytrium", "setting": "[3]; pH 4, 0 h", "result": 0.28, "unit": "g/L"}, {"measurement": "Cell Dry Weight of Aurantiochytrium", "setting": "[3]; pH 4, 24 h", "result": 1.1, "unit": "g/L"}, {"measurement": "Cell Dry Weight of Aurantiochytrium", "setting": "[3]; pH 4, 48 h", "result": 0.79, "unit": "g/L"}, {"measurement": "Cell Dry Weight of Aurantiochytrium", "setting": "[3]; pH 4, 72 h", "result": 0.51, "unit": "g/L"}, {"measurement": "Cell Dry Weight of Aurantiochytrium", "setting": "[3]; pH 5, 0 h", "result": 0.25, "unit": "g/L"}, {"measurement": "Cell Dry Weight of Aurantiochytrium", "setting": "[3]; pH 5, 24 h", "result": "5.15 + g/L"}, {"measurement": "Cell Dry Weight of Aurantiochytrium", "setting": "[3]; pH 5, 48 h", "result": 15.2, "unit": "g/L"}, {"measurement": "Cell Dry Weight of Aurantiochytrium", "setting": "[3]; pH 5, 72 h", "result": 19.4, "unit": "g/L"}, {"measurement": "Cell Dry Weight of Aurantiochytrium", "setting": "[3]; pH 6, 0 h", "result": 0.18, "unit": "g/L"}, {"measurement": "Cell Dry Weight of Aurantiochytrium", "setting": "[3]; pH 6, 24 h", "result": 5.1, "unit": "g/L"}, {"measurement": "Cell Dry Weight of Aurantiochytrium", "setting": "[3]; pH 6, 48 h", "result": 11.55, "unit": "g/L"}, {"measurement": "Cell Dry Weight of Aurantiochytrium", "setting": "[3]; pH 6, 72 h", "result": 16, "unit": "g/L"}, {"measurement": "Cell Dry Weight of Aurantiochytrium", "setting": "[3]; pH 7, 0 h", "result": 0.3, "unit": "g/L"}, {"measurement": "Cell Dry Weight of Aurantiochytrium", "setting": "[3]; pH 7, 24 h", "result": 12.25, "unit": "g/L"}, {"measurement": "Cell Dry Weight of Aurantiochytrium", "setting": "[3]; pH 7, 48 h", "result": 10.8, "unit": "g/L"}, {"measurement": "Cell Dry Weight of Aurantiochytrium", "setting": "[3]; pH 7, 72 h", "result": 15.7, "unit": "g/L"}, {"measurement": "Cell Dry Weight of Aurantiochytrium", "setting": "[3]; pH 8, 0 h", "result": 0.25, "unit": "g/L"}, {"measurement": "Cell Dry Weight of Aurantiochytrium", "setting": "[3]; pH 8, 24 h", "result": 9.1, "unit": "g/L"}, {"measurement": "Cell Dry Weight of Aurantiochytrium", "setting": "[3]; pH 8, 48 h", "result": 8.95, "unit": "g/L"}, {"measurement": "Cell Dry Weight of Aurantiochytrium", "setting": "[3]; pH 8, 72 h", "result": 12.6, "unit": "g/L"}, {"measurement": "cell dry weight over time", "setting": "[3]; 2 g/L sodium acetate, pH of 4", "result": "did not increase over time"}]}]}
